Results: PubChem BioAssay (NCI)
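Briefly, cells in 96-well plates were exposed to five compound concentrations for 48 h, and endpoints were estimated by linear interpolation. TGI is the concentration that stops growth completely.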

Legend:
Test in all cases: inhibition of tumour cell growth, NCI panel, 48 h
[1] = test system: K-562 leukemia
[2] = test system: BT-549 breast
[3] = test system: SNB-19 CNS
[4] = test system: MOLT-4 leukemia
[5] = test system: IGROV1 ovarian
[6] = test system: OVCAR-3 ovarian
[7] = test system: SK-MEL-5 melanoma
[8] = test system: NCI/ADR-RES ovarian
[9] = test system: HT29 colon
[10] = test system: SR leukemia
[11] = test system: TK-10 renal
[12] = test system: NCI-H460 lung
[13] = test system: A549 NSCLC
[14] = test system: HL-60(TB) leukemia
[15] = test system: SK-MEL-2 melanoma
[16] = test system: HCT-116 colon
[17] = test system: ACHN renal
[18] = test system: NCI-H226 lung
[19] = test system: UO-31 renal
[20] = test system: OVCAR-8 ovarian
[21] = test system: 786-0 renal
[22] = test system: MDA-MB-435
[23] = test system: SK-MEL-28 melanoma
[24] = test system: PC-3 prostate
[25] = test system: KM12 colon
[26] = test system: OVCAR-4 ovarian
[27] = test system: COLO 205 colon
[28] = test system: MCF7 breast
[29] = test system: EKVX NSCLC
[30] = test system: SF-295 CNS
[31] = test system: UACC-257 melanoma
[32] = test system: HCC-2998 colon
[33] = test system: SN12C renal
[34] = test system: CAKI-1 renal
[35] = test system: SK-OV-3 ovarian
[36] = test system: SF-268 CNS
[37] = test system: MALME-3M melanoma
[38] = test system: MDA-N
[39] = test system: HOP-62 NSCLC
[40] = test system: RXF 393 renal
[41] = test system: SW-620 colon
[42] = test system: M14 melanoma
[43] = test system: HS 578T breast
[44] = test system: U251 CNS
[45] = test system: UACC-62 melanoma
[46] = test system: T-47D breast
[47] = test system: SNB-75 CNS
[48] = test system: NCI-H522 lung
[49] = test system: HOP-92 NSCLC
[50] = test system: RPMI-8226 leukemia
[51] = test system: OVCAR-5 ovarian
[52] = test system: A498 renal
[53] = test system: NCI-H23 lung
[54] = test system: HCT-15 colon
[55] = test system: MDA-MB-231 breast
[56] = test system: DU-145 prostate
[57] = test system: CCRF-CEM leukemia
[58] = test system: SF-539 CNS

Compound: COc1ccc2c(c1)CN([C@@H](C)[C@H]1CC[C@H]3[C@@H]4CC[C@H]5C[C@@H](O)CC[C@]5(C)[C@H]4CC[C@]13C)CO2
- TGI [1]: 2.37 µM
- TGI [2]: 14.4 µM
- TGI [3]: 4.1 µM
- TGI [4]: 2.98 µM
- TGI [5]: 14.6 µM
- TGI [6]: 18 µM
- TGI [7]: 3.28 µM
- TGI [8]: 18.6 µM
- TGI [9]: 3.63 µM
- TGI [10]: 2.61 µM
- TGI [11]: 8.32 µM
- TGI [12]: 2.47 µM
- TGI [13]: 4.51 µM
- TGI [14]: 5.91 µM
- TGI [15]: 3.83 µM
- TGI [16]: 7.22 µM
- TGI [17]: 11.2 µM
- TGI [18]: 24.3 µM
- TGI [19]: 3.39 µM
- TGI [20]: > 24.1 µM
- TGI [21]: 2.7 µM
- TGI [22]: 3.48 µM
- TGI [23]: 5.98 µM
- TGI [24]: 7.46 µM
- TGI [25]: 4.31 µM
- TGI [26]: 17.8 µM
- TGI [27]: 3.85 µM
- TGI [28]: 11.8 µM
- TGI [29]: 14.7 µM
- TGI [30]: 2.98 µM
- TGI [31]: 6.31 µM
- TGI [32]: 3.01 µM
- TGI [33]: 22.6 µM
- TGI [34]: 13.8 µM
- TGI [35]: 3.56 µM
- TGI [36]: 7.38 µM
- TGI [37]: 3.47 µM
- TGI [38]: 3.38 µM
- TGI [39]: 4 µM
- TGI [40]: 2.74 µM
- TGI [41]: > 23.6 µM
- TGI [42]: 3.54 µM
- TGI [43]: 4.14 µM
- TGI [44]: 3.35 µM
- TGI [45]: 3.88 µM
- TGI [46]: 18.3 µM
- TGI [47]: 4.94 µM
- TGI [48]: 4.21 µM
- TGI [49]: 3.71 µM
- TGI [50]: 1.97 µM
- TGI [51]: 13.5 µM
- TGI [52]: 3.45 µM
- TGI [53]: 5.12 µM
- TGI [54]: 3.75 µM
- TGI [55]: 5.19 µM
- TGI [56]: 13.7 µM
- TGI [57]: 6.19 µM
- TGI [58]: 3.33 µM
